Data set [1] in a line: Water solubility testing of compounds (HPLC). As to conditions: deionized water, 37 °C water bath.
Data set [2] has as its system MDSCs and T cells. The data set can be described thus: T cell proliferation in a co-culture model of MDSCs and T cells (flow cytometry). It counts as cell-based, mice. As to conditions: MDSCs treated with 1 µM compound for 12 h, 48 h co-culture with T cells (1:1), compared to the control group. How it is done:
Under sterile conditions, the tibia was removed, both ends of the bone were cut, and bone marrow was repeatedly flushed into a 15 mL centrifuge tube using a 1 mL syringe filled with culture medium. Centrifuge at 1600 rpm for 5 min to collect bone marrow cells. […] The spleen cell suspension was then transferred into a 15 mL centrifuge tube. Centrifuge at 1600 rpm for 5 min to collect T cells. Wash twice with 1×PBS. Resuspend the centrifuged T cells in 1 mL PBS and add 1 mL of 10 µM CFDA-SE solution. Incubate at room temperature for 8 min. […] After drug administration, collect MDSC cells into centrifuge tubes. Centrifuge at 1600 rpm for 5 min, remove supernatant, resuspend in 1 mL fresh medium, and plate. Add 1 mL stimulated activated T cells (1:1 ratio) for 48 h co-culture. After incubation, collect cells into centrifuge tubes, wash twice with PBS, and incubate with Fc antibody at room temperature in the dark for 10 min. Add CD3-labeled flow cytometry antibody and incubate at 4 °C in the dark for 30 min. After incubation, wash cells with PBS, resuspend in 300 µL PBS, and analyze by flow cytometry.
On the technique in general: Flow cytometry measures light scatter and fluorescence of single cells or particles in a stream.

Data set [3] concerns renal injury markers (Ngal, Havcr1), inflammatory cytokines (TNF, IL-6, IL-1), fibrosis-related factors (α-Sma, Col1a1, Tgfb1). Kind of data set: Folic acid acute kidney injury model in mice: Q-PCR of kidney tissue. The format is in vivo, C57BL/6 mice. As to conditions: kidney mRNA, acute model (FA).
Data set [4] in a line: Conversion rate of salt-form prodrugs to parent compound in mouse plasma. It counts as in vitro ADME. As to conditions: 37 °C. Here is the method:
Pharmaceutically acceptable salts of guaiane-type sesquiterpene lactone derivatives were selected and evaluated for their conversion rates to Compound 1 and Compound 83 in plasma and HEPES buffer, with results shown in Tables 2-1, 2-2, 3-1, and 3-2.
Plasma Preparation: Collect mouse plasma into an EP tube pre-loaded with sodium heparin, centrifuge at 8000 rpm for 10 minutes at 4°C, and then collect the supernatant.
Sample Analysis: Dissolve 0.6 mg of the compound in 250 µl of deionized water separately. Add 250 µl of mouse serum or HEPES 7.4 solution to the sample, incubate at a constant temperature of 37 °C, and collect samples at different time points. Pipette 20 µl of the sample to an EP tube, add 60 µl of methanol, vortex to mix thoroughly, and centrifuge at 12,000 rpm at 4 °C for 10 min. At 1 h, 2 h, 4 h, 8 h, and 12 h respectively, collect the supernatant for HPLC analysis. Inject 10 µL of sample and record the corresponding peak areas. Chromatographic conditions: Hanbang C18 column (4.6 × 250 mm, 5 µm); mobile phase: acetonitrile: […] ammonium formate solution = 60:40; flow rate 1.0 mL/min; detection wavelength 210 nm; column temperature 30 °C. [drawing 171] Table 2-1. Conversion Rate of Compounds 20-42 to Compound 1 at Different Time Points in HEPES Buffer Solution

A short description of data set [5]: Conversion rate of salt-form prodrugs to parent compound in HEPES buffer solution. It counts as physicochemical. How it is done:
Adjust the pH to 7.4 using 0.5 M NaOH, then dilute to a final volume 100 mL with distilled water.
Sample Analysis: Dissolve 0.6 mg of the compound in 250 µl of deionized water separately. Add 250 µl of mouse serum or HEPES 7.4 solution to the sample, incubate at a constant temperature of 37 °C, and collect samples at different time points. Pipette 20 µl of the sample to an EP tube, add 60 µl of methanol, vortex to mix thoroughly, and centrifuge at 12,000 rpm at 4 °C for 10 min. At 1 h, 2 h, 4 h, 8 h, and 12 h respectively, collect the supernatant for HPLC analysis. Inject 10 µL of sample and record the corresponding peak areas.

Data set [6] deals with chronic kidney injury induced by unilateral ureteral ligation. Kind of data set: Unilateral ureteral ligation (UUO) chronic kidney injury model in mice: Scr and BUN. The format is in vivo, C57BL/6 mice. As to conditions: serum, 14 days.
Data set [7] has as its system 4T1 cells. The format is in vivo, BALB/c mice. As to conditions: 4T1, oral 40 µmol/kg/day, 3 weeks. How it is done: 4T1 cells were cultured and expanded in vitro. […] A 100 µL aliquot of this suspension was injected subcutaneously into the left forelimb axilla of female BALB/c mice. […] Daily oral administration was performed for 3 weeks. During the treatment period, mouse body weight and tumor diameter were measured daily. At the end of the experiment, mice were euthanized by cervical dislocation, and tumors were removed for weighing. Tumor volume (TV) was calculated using the formula: TV = 1/2 × a × b^2, where a represents the longest diameter of the tumor and b represents the shortest diameter.

For data set [8], the system named is CCR2 mRNA. The data set can be described thus: CCR2 mRNA level in MDSCs (PCR). It counts as cell-based, mice. As to conditions: CCR2 mRNA levels in MDSCs, 2 h. How it is done:
Mice were euthanized by cervical dislocation and immersed in 75% ethanol solution for 5 min. Under sterile conditions, the tibia was removed, both ends of the bone were cut, and bone marrow was repeatedly flushed into a 15 mL centrifuge tube using a 1 mL syringe filled with culture medium. Centrifuge at 1600 rpm for 5 min to collect bone marrow cells. Wash twice with 1×PBS, then resuspend in RPMI 1640 complete medium containing GM-CSF (10 ng/mL) + IL-4 (10 ng/mL) and transfer to a cell culture dish to stimulate differentiation of bone marrow cells into MDSCs. Count cells and adjust density to 1 × 10^6 cells/mL in complete medium. Seed cells uniformly into 6-well plates at 2 mL per well. […] After incubation, collect cells into centrifuge tubes, centrifuge at 1600 rpm for 5 min, wash once with 1×PBS, and add 500 µL RNA extraction reagent to each tube. After centrifugation to obtain the pellet, add 20 µL DEPC-treated water to each tube to dissolve the pellet. Determine RNA concentration and reverse transcribe to cDNA. Add the cDNA, primers, and reverse transcriptase to a 96-well plate. Centrifuge at 4000 rpm for 5 min, then place in a PCR instrument for detection.

For data set [9], the system named is MDSCs. The data set can be described thus: Inhibition of MDSC chemotaxis (Transwell, Hepa1-6 tumor-conditioned medium). The format is cell-based, mice. As to conditions: 12 h treatment, 24 h Transwell. Here is the method:
Hepa1-6 mouse hepatocellular carcinoma cells were uniformly seeded into 6-well plates. After cells reached confluence, supernatant was aspirated, and 1-1.5 mL fresh medium was added to each well. Following 24 h culture, supernatant was collected, centrifuged at 1600 rpm for 5 min, aspirated, and filtered through a 0.22 µm membrane to obtain tumor-conditioned medium for subsequent use. Euthanize mice by cervical dislocation and immerse in 75% ethanol solution for 5 min. Under sterile conditions, remove the tibia, cut both ends of the bone, and aspirate the bone marrow into a 1 mL syringe. Repeat flushing into a 15 mL centrifuge tube. Centrifuge at 1600 rpm for 5 min to collect bone marrow cells. Wash twice with 1×PBS. Resuspend cells in complete RPMI 1640 medium containing cytokines GM-CSF (10 ng/mL) and IL-4 (10 ng/mL) to stimulate differentiation into MDSCs. Count cells, adjust density to 1×10^6 cells/mL, and uniformly seed into 24-well plates at 300 µL per well. […] Centrifuge at 1600 rpm for 5 min, remove supernatant, resuspend cells in 300 µL fresh medium, and place into Transwell chambers. Add 600 µL normal medium (control group) or tumor-conditioned medium (model group) to the lower chamber. Co-culture for 24 h.

The structures appear in SMILES notation.

`C[C@@]12CC[C@@H]3[C@H](OC(=O)[C@H]3CN3CCC4(CC3)CC4)[C@@H]3[C@]1(CC[C@@]3(C)O)C2` [compound 18] yielded a Water-solubility in data set [1] of 584 µg/mL.

In data set [1], `C=C1C(=O)O[C@H]2[C@H]1CCC(C)=C1CC[C@@](C)(OC(=O)NCCN3CCOCC3)[C@@H]12` [compound 98] registered a Water-solubility of 202500 µg/mL. Besides, in [2], the “T-cell proliferation rate (%)” value is reported as “+ (T-cell proliferation rate within the 0-20% range compared to the control group)”.

With `CN(C)C[C@@H]1C(=O)O[C@H]2[C@H]1CC[C@@]1(C)C[C@]13CC[C@@](C)(O)[C@H]23` [compound 21], the α-Sma is listed as 1.80±0.42 in data set [3] (oral 0.1 mg/kg) and 0.90±0.21 in [3] (oral 1 mg/kg, 1 mg/kg). Moreover, the Release rate in data set [4] (conversion to Compound 1, mouse plasma, 1 h) is 5.4%; in data set [4] (conversion to Compound 1, mouse plasma, 2 h), 10.7%; in [4] (conversion to Compound 1, mouse plasma, 4 h), 17.9%; in data set [4] (conversion to Compound 1, mouse plasma, 8 h) it was 39.3%; in data set [4] (conversion to Compound 1, mouse plasma, 12 h) it was 55.4%; in [5] (conversion to Compound 1, HEPES buffer pH 7.4, 37 °C, 1 h) it was 3.3%. Besides, the Release rate came out at 10.2% in data set [5] (conversion to Compound 1, HEPES buffer pH 7.4, 37 °C, 2 h); 18.1% in [5] (conversion to Compound 1, HEPES buffer pH 7.4, 37 °C, 4 h); 38.9% in data set [5] (conversion to Compound 1, HEPES buffer pH 7.4, 37 °C, 8 h); 51.9% in data set [5] (conversion to Compound 1, HEPES buffer pH 7.4, 37 °C, 12 h). Further, the BUN stood at 17.63±1.13 in [6] (oral gavage 0.1 mg/kg) and 9.45±1.55 in data set [6] (oral gavage 1 mg/kg, 1 mg/kg). Further, the Scr amounted to 157.79±21.92 in data set [6] (oral gavage 0.1 mg/kg) and 79.87±13.44 in data set [6] (oral gavage 1 mg/kg, 1 mg/kg).

`C[C@@]12CC[C@@H]3[C@H](OC(=O)[C@H]3CN3CCNCC3)[C@@H]3[C@]1(CC[C@@]3(C)O)C2` [compound 7] showed a Water-solubility in data set [1] of 1488 µg/mL.

Consider `C=C1C(=O)O[C@H]2[C@H]1CCC(C)=C1CC[C@@](C)(OC(=O)NCCN3CCOCC3)[C@@H]12` [compound 99], for which the antitumor effects result in [7] is on record as “no significant antitumor effects”.

`C[C@@]12CC[C@@H]3[C@H](OC(=O)[C@H]3CN3CCC4(CCCC4)CC3)[C@@H]3[C@]1(CC[C@@]3(C)O)C2` [compound 15] came in with a Water-solubility in [1] of 310 µg/mL.

Regarding `C[C@@]12CC[C@@H]3[C@H](OC(=O)[C@H]3CN3CCCCCCC3)[C@@H]3[C@]1(CC[C@@]3(C)O)C2` [compound 19], the Water-solubility in data set [1] was 623 µg/mL.

On to `CC1=C2CC[C@@](C)(OC(=O)N3CCCCC3)[C@@H]2[C@H]2OC(=O)[C@@H](CN(C)C)[C@@H]2CC1` [compound 102], for which the Release rate is recorded as 6.6% in data set [4] (conversion to Compound 83, mouse plasma, 1 h); 14.0% in [4] (conversion to Compound 83, mouse plasma, 2 h); 26.0% in data set [4] (conversion to Compound 83, mouse plasma, 4 h); 42.4% in data set [4] (conversion to Compound 83, mouse plasma, 8 h); 47.8% in [4] (conversion to Compound 83, mouse plasma, 12 h); 6.8% in data set [5] (conversion to Compound 83, HEPES buffer pH 7.4, 37 °C, 1 h). Also, the Release rate is recorded as 14.6% in [5] (conversion to Compound 83, HEPES buffer pH 7.4, 37 °C, 2 h); 24.8% in data set [5] (conversion to Compound 83, HEPES buffer pH 7.4, 37 °C, 4 h); 43.0% in data set [5] (conversion to Compound 83, HEPES buffer pH 7.4, 37 °C, 8 h); 51.8% in [5] (conversion to Compound 83, HEPES buffer pH 7.4, 37 °C, 12 h). The antitumor effects entry in data set [7] is recorded as “no significant antitumor effects”.

`CCOC(=O)[C@@H]1CCCN1C[C@@H]1C(=O)O[C@H]2[C@H]1CC[C@@]1(C)C[C@]13CC[C@@](C)(O)[C@H]23` [compound 4] yielded a Water-solubility in data set [1] of 822 µg/mL. In addition, the “T-cell proliferation rate (%)” value in [2] is “++ (T-cell proliferation rate within the 20-40% range compared to the control group)”.

In data set [1], `CCCCN(CCCC)C[C@@H]1C(=O)O[C@H]2[C@H]1CC[C@@]1(C)C[C@]13CC[C@@](C)(O)[C@H]23` [compound 11] had a Water-solubility of 682 µg/mL.

In data set [1], `C[C@@]12CC[C@@H]3[C@H](OC(=O)[C@H]3CN3CC4CCCC4C3)[C@@H]3[C@]1(CC[C@@]3(C)O)C2` (stereo partly shown) [compound 13] showed a Water-solubility of 419 µg/mL.

Regarding `C=C1C(=O)O[C@H]2[C@H]1CCC(C)=C1CC[C@@](C)(OC(=O)NCCN3CCOCC3)[C@@H]12` [compound 78], the “CCR2 mRNA suppression rate in MDSCs (%)” value was determined as 23.0% in data set [8] (1 µM) and 52.7% in [8] (10 µM). The “Suppression Rate (%)” value is given as 29.0% in data set [9] (1 µM) and 67.1% in [9] (10 µM).

In turn, `CCCN(CCC)C[C@@H]1C(=O)O[C@H]2[C@H]1CC[C@@]1(C)C[C@]13CC[C@@](C)(O)[C@H]23` [compound 10] came in with a Water-solubility in data set [1] of 715 µg/mL.

The values above are taken from patent EP4813381A1, “PHARMACEUTICAL USE OF GUAIANE SESQUITERPENE DERIVATIVE” (Nanjing University Of Chinese Medicine, priority 2023, dated 2025).
